The values that follow come from the NIST ThermoML archive (doi:10.1021/je301095j).

For this data set the following is noted: 101.33 kPa, Liquid; for viscosity: Capillary tube (Ostwald / Ubbelohde) method; for mass density: Vibrating tube method.

Numbers after ± are expanded uncertainties.

As to `COCCOC` [1,2-dimethoxyethane], the viscosity is, setting by setting: (283.15 K) 0.493 ± 0.004 mPa·s; (293.15 K) 0.438 ± 0.003 mPa·s; (298.15 K) 0.414 ± 0.003 mPa·s; (303.15 K) 0.392 ± 0.003 mPa·s; (313.15 K) 0.353 ± 0.003 mPa·s. Further, the mass density (283.15 K) turned out to be 877.72 ± 0.12 kg/m3; the mass density (293.15 K) stood at 866.71 ± 0.12 kg/m3; the mass density (298.15 K) was 861.2 ± 0.12 kg/m3; the mass density (303.15 K) was determined as 855.7 ± 0.13 kg/m3; the mass density (313.15 K) amounted to 844.69 ± 0.13 kg/m3.
As for `CCCCCO` [pentan-1-ol], the viscosity is, setting by setting: (283.15 K) 5.463 ± 0.04 mPa·s; (293.15 K) 4.037 ± 0.03 mPa·s; (298.15 K) 3.49 ± 0.026 mPa·s; (303.15 K) 3.032 ± 0.023 mPa·s; (313.15 K) 2.319 ± 0.018 mPa·s. Besides, the mass density is, setting by setting: (283.15 K) 821.95 ± 0.24 kg/m3; (293.15 K) 814.6 ± 0.24 kg/m3; (298.15 K) 810.93 ± 0.24 kg/m3; (303.15 K) 807.25 ± 0.24 kg/m3; (313.15 K) 799.9 ± 0.24 kg/m3.
On to `CCO` [ethanol], for which the viscosity (283.15 K) is recorded as 1.459 ± 0.009 mPa·s; the viscosity (293.15 K) is reported as 1.209 ± 0.007 mPa·s; the viscosity (298.15 K) amounted to 1.098 ± 0.007 mPa·s; the viscosity (303.15 K) worked out at 0.998 ± 0.006 mPa·s; the viscosity (313.15 K) came to 0.831 ± 0.005 mPa·s. Also, the mass density reads like this: (283.15 K) 797.97 ± 0.12 kg/m3; (293.15 K) 789.43 ± 0.12 kg/m3; (298.15 K) 785.16 ± 0.12 kg/m3; (303.15 K) 780.88 ± 0.12 kg/m3; (313.15 K) 772.34 ± 0.13 kg/m3.
As to `CCCCCCCCO` [octan-1-ol], the viscosity (283.15 K) was 13.52 ± 0.07 mPa·s; the viscosity (293.15 K) is 9.167 ± 0.05 mPa·s; the viscosity (298.15 K) came to 7.618 ± 0.042 mPa·s; the viscosity (303.15 K) stood at 6.395 ± 0.036 mPa·s; the viscosity (313.15 K) is reported as 4.628 ± 0.028 mPa·s. Also, the mass density by setting is: (283.15 K) 832.11 ± 0.13 kg/m3; (293.15 K) 825.13 ± 0.13 kg/m3; (298.15 K) 821.63 ± 0.14 kg/m3; (303.15 K) 818.14 ± 0.14 kg/m3; (313.15 K) 811.15 ± 0.14 kg/m3.

As a reminder, the viscosity is the internal friction of a fluid under shear. What is called mass density is the mass of a sample divided by its volume.
